This note sets out measurements from publication PMC6233306 (Bioorganic & medicinal chemistry letters, 2018).

In brackets after ≈: the same amount, converted by molar mass.

One series concerns Mtb H37Rv. Description: Mtb H37Rv growth inhibition. In kind it is cell-based, Mycobacterium tuberculosis. Particulars: for MIC90: Mycobacterium tuberculosis, H37RV, read-out: Mtb H37Rv MIC90; for MICs: in words.
A short description of series [1]: Chemical stability of coumarin core towards organic bases. Format: physicochemical. Particulars: prolonged time at ambient temperature; gives equimolar ring-opened product 5.
Series [2] in a line: Kinetic aqueous solubility. Format: physicochemical. Particulars: pH 7.4, water, kinetic from dmso stock.

The term MIC90 denotes the lowest concentration that inhibits either 90% of growth or 90% of the strains tested, depending on the study. On to `Cc1cc2nccc(-c3ccc(Cl)cc3)c2c(C)c1-c1ccc(CN2CCOCC2)cc1` [Compound 15c], for which the MIC90 with Mtb H37Rv was greater than 80 µM.
Regarding `COc1cccc(-c2ccnc3cc(C)c(-c4ccc(CN5CCOCC5)cc4)c(C)c23)c1Cl` [Compound 15h], the MIC90 in the series with Mtb H37Rv turned out to be 10 µM (≈ 4.73 µg/mL).
Turning to `Cc1cc2nc(CO)cc(-c3ccccc3Cl)c2c(C)c1-c1ccncc1` [Compound 19], the MIC90 with Mtb H37Rv turned out to be 3.75 µM (≈ 1.41 µg/mL).
As for `Cc1cc2nc(C(N)=O)cc(-c3ccccc3Cl)c2c(C)c1-c1ccncc1` [Compound 21a], in the series with Mtb H37Rv, the MIC90 came out at 1.25 µM (≈ 0.485 µg/mL).
For the compound `Cc1cc2oc(=O)cc(-c3ccc(F)cc3)c2c(C)c1-c1ccc(CN2CCOCC2)cc1` [Compound 4], the “stability towards organic bases such as morpholine” value in series [1] is on record as “not stable”.
As for `COc1ccncc1-c1ccnc2cc(C)c(-c3ccc(CN4CCOCC4)cc3)c(C)c12` [Compound 15k], the MIC90 in the series with Mtb H37Rv turned out to be 2.5 µM (≈ 1.1 µg/mL).
On to `Cc1cc2nc(C(=O)NCCF)cc(-c3ccccc3Cl)c2c(C)c1-c1ccncc1` [Compound 21d], for which the MIC90 in the series with Mtb H37Rv amounted to 1.25 µM (≈ 0.542 µg/mL).
Turning to `Cc1cc2nc(C(=O)N3CCCC3)cc(-c3ccccc3Cl)c2c(C)c1-c1ccncc1` [Compound 23b], the MIC90 in the series with Mtb H37Rv was found to be 5 µM (≈ 2.21 µg/mL).
The solubility (kinetic) is the concentration staying in solution when a stock, usually in DMSO, is diluted into the medium. Turning to `Cc1cc2nccc(-c3cncnc3)c2c(C)c1-c1ccc(CN2CCOCC2)cc1` [Compound 15n], the MIC90 with Mtb H37Rv came to 2.5 µM (≈ 1.03 µg/mL). Also, the solubility (kinetic) in series [2] is greater than 150 µM.
Regarding `Cc1cc2nc(C(=O)NCCO)cc(-c3ccccc3Cl)c2c(C)c1-c1ccncc1` [Compound 21e], in the series on Mtb H37Rv, the MIC90 is 0.3 µM (≈ 0.13 µg/mL) and the MICs result was “sub-micromolar”.
`Cc1cc2nccc(-c3ccccc3C(=O)O)c2c(C)c1-c1ccc(CN2CCOCC2)cc1` [Compound 15f]: in the series on Mtb H37Rv, the MIC90 stood at 40 µM (≈ 18.1 µg/mL).
With `CCOC(=O)c1cc(-c2ccccc2Cl)c2c(C)c(-c3ccncc3)c(C)cc2n1` [Compound 18], the MIC90 in the series on Mtb H37Rv worked out at 10 µM (≈ 4.17 µg/mL).
Same read-out and setting: the value for `Cc1cc2nccc(-c3ccccc3Cl)c2c(C)c1-c1ccncc1` [Compound 15p] was 5 µM (≈ 1.72 µg/mL).
In series [2], `Cc1cc2nccc(-c3cccnc3)c2c(C)c1-c1ccc(CN2CCOCC2)cc1` [Compound 15j] showed a kinetic solubility greater than 150 µM.
As to `Cc1cc2nccc(-c3ccccc3C#N)c2c(C)c1-c1ccc(CN2CCOCC2)cc1` [Compound 15d], in the series on Mtb H37Rv, the MIC90 stood at 2.5 µM (≈ 1.08 µg/mL).
In the case of `Cc1cc2nccc(-c3ccccc3C(N)=O)c2c(C)c1-c1ccc(CN2CCOCC2)cc1` [Compound 15g], the MIC90 in the series with Mtb H37Rv was 20 µM (≈ 9.03 µg/mL).
Still for that read-out and setting: the value for `Cc1cc2nc(C(=O)NC(C)C)cc(-c3ccccc3Cl)c2c(C)c1-c1ccncc1` [Compound 21c] was 2.5 µM (≈ 1.07 µg/mL).
`Cc1cc2nc(C(C)(C)O)cc(-c3ccccc3Cl)c2c(C)c1-c1ccncc1` [Compound 20]: in the series with Mtb H37Rv, the MIC90 was greater than 40 µM.
For the compound `Cc1cc2nccc(-c3ccnn3C)c2c(C)c1-c1ccc(CN2CCOCC2)cc1` [Compound 15m], the MIC90 with Mtb H37Rv came to 2.5 µM (≈ 1.03 µg/mL). The kinetic solubility in series [2] was greater than 150 µM.
Consider `COc1ncccc1-c1ccnc2cc(C)c(-c3ccc(CN4CCOCC4)cc3)c(C)c12` [Compound 15l], for which the MIC90 in the series with Mtb H37Rv turned out to be 2.5 µM (≈ 1.1 µg/mL).
For the compound `CNC(=O)c1cc(-c2ccccc2Cl)c2c(C)c(-c3ccncc3)c(C)cc2n1` [Compound 21b], in the series with Mtb H37Rv, the MIC90 came out at 0.8 µM (≈ 0.322 µg/mL) and the MICs result was “sub-micromolar”. For the same compound, the CFU reduction in the series on H37Rv (lung, once-daily oral, dose-dependent, up to 50 mg/kg, 8-day acute model) is given as roughly 4 log CFU. Besides, in the series on H37Rv (mice, up to the highest dose of 50 mg/kg), the tolerability result is on record as “no tolerability issue observed”.
On to `CCc1ccccc1CNc1ccnc2cc(C)c(-c3ccc(CN4CCOCC4)cc3)c(C)c12` [Compound 15e], for which, in the series on Mtb H37Rv, the MIC90 was 2.5 µM (≈ 1.16 µg/mL).
For the compound `Cc1cc2nc(C(=O)NCCN(C)C)cc(-c3ccccc3Cl)c2c(C)c1-c1ccncc1` [Compound 21f], in the series on Mtb H37Rv, the MIC90 was 0.3 µM (≈ 0.138 µg/mL) and the MICs result is on record as “sub-micromolar”.
As for `Cc1cc2nccc(-c3ccccc3)c2c(C)c1-c1ccc(CN2CCOCC2)cc1` [Compound 8], in the series with Mtb H37Rv, the MIC90 worked out at 0.45 µM (≈ 0.184 µg/mL).
`Cc1cc2nccc(-c3ccccc3Cl)c2c(C)c1-c1ccc(CN2CCOCC2)cc1` [Compound 15a]: the MIC90 in the series on Mtb H37Rv came to 0.3 µM (≈ 0.133 µg/mL).
In the case of `Cc1cc2nccc(-c3cccc(Cl)c3)c2c(C)c1-c1ccc(CN2CCOCC2)cc1` [Compound 15b], the MIC90 in the series on Mtb H37Rv was 1.5 µM (≈ 0.664 µg/mL).
